Experimental data published in ChEMBL document CHEMBL4020814, “Synthesis, Binding Mode, and Antihyperglycemic Activity of Potent and Selective (5-Imidazol-2-yl-4-phenylpyrimidin-2-yl)[2-(2-pyridylamino)ethyl]amine Inhibitors of Glycogen Synthase Kinase 3” (J Med Chem, 2017).
Blank lines part the entries; values can stand above or below the molecule they belong to.

Legend:
[1] = Inhibition of GSK3 expressed in CHO-IR cells expressing human insulin receptor assessed as glycogen synthase activation after 30 mins by filter paper assay; assay type: cell-based, Cavia porcellus
[2] = Inhibition of human GSK3 using biotin-CREB peptide substrate after 1 hr by scintillation counting method

Compound: CN(C)CCN(C)C(=O)c1cnc(NCCNc2ccc([N+](=O)[O-])cn2)nc1-c1ccc(C#N)cc1
EC50 [1]: > 10000 nM
IC50 [2]: 140 nM

Compound: CCOC(=O)c1cnc(NCCNc2ccc([N+](=O)[O-])cn2)nc1-c1ccc(C#N)cc1
EC50 [1]: 2200 nM
IC50 [2]: 52 nM

Compound: N#Cc1ccc(-c2nc(NCCNc3ccc([N+](=O)[O-])cn3)ncc2C(=O)NCc2ccccc2)cc1
IC50 [2]: 75 nM

Compound: O=[N+]([O-])c1ccc(NCCNc2ncc(-n3ccnc3)c(-c3ccc(N4CCNCC4)cc3)n2)nc1
IC50 [2]: 166 nM

Compound: CCOC(=O)c1c(-c2ccncc2)nc(NCCNc2ccc([N+](=O)[O-])cn2)nc1-c1ccc(C(N)=O)cc1
IC50 [2]: 140 nM

Compound: N#Cc1ccnc(NCCNc2ncc(-n3ccnc3)c(-c3ccc(Cl)cc3Cl)n2)c1
IC50 [2]: 200 nM

Compound: CCOC(=O)c1c(CC)nc(NCCNc2ccc([N+](=O)[O-])cn2)nc1-c1ccc(C(N)=O)cc1
EC50 [1]: 9600 nM
IC50 [2]: 120 nM

Compound: CCOC(=O)C1=C(CC)N=C(NCCNc2ccc([N+](=O)[O-])cn2)NC1c1ccc(C(N)=O)cc1 (stereo not drawn)
IC50 [2]: 3400 nM

Compound: CCOC(=O)c1ccc(NCCNc2ncc(-n3ccnc3)c(-c3ccc(Cl)cc3Cl)n2)nc1
IC50 [2]: 3650 nM

Compound: CN1CCN(c2ccc(-c3nc(NCCNc4ccc([N+](=O)[O-])cn4)ncc3-n3ccnc3)cc2)CC1
IC50 [2]: 1120 nM

Compound: O=[N+]([O-])c1ccc(NCCNc2ncc(-n3ccnc3)c(-c3ccc(C(F)(F)F)cc3)n2)nc1
EC50 [1]: 2500 nM
IC50 [2]: 40 nM

Compound: N#Cc1ccc(-c2nc(NCCNc3ccc([N+](=O)[O-])cn3)ncc2C(=O)NCCN)cc1
IC50 [2]: 153 nM

Compound: O=[N+]([O-])c1ccc(NCCNc2ncc(-n3ccnc3)c(-c3ccc(N4CCCCC4)cc3)n2)nc1
IC50 [2]: 777 nM

Compound: O=[N+]([O-])c1ccc(OCCNc2ncc(-n3ccnc3)c(-c3ccc(Cl)cc3Cl)n2)nc1
IC50 [2]: 2830 nM

Compound: COc1nc(NCCNc2ncc(-n3ccnc3)c(-c3ccc(Cl)cc3Cl)n2)ccc1[N+](=O)[O-]
IC50 [2]: 81 nM

Compound: Cc1cc([N+](=O)[O-])cnc1NCCNc1ncc(-n2ccnc2)c(-c2ccc(Cl)cc2Cl)n1
IC50 [2]: 3370 nM

Compound: O=[N+]([O-])c1ccc(NCCNc2ncc(-n3ccnc3)c(-c3ccc(-n4ccnc4)cc3)n2)nc1
IC50 [2]: 124 nM

Compound: CC(=O)c1ccc(NCCNc2ncc(-n3ccnc3)c(-c3ccc(Cl)cc3Cl)n2)nc1
IC50 [2]: 5950 nM

Compound: FC(F)(F)c1ccnc(NCCNc2ncc(-n3ccnc3)c(-c3ccc(Cl)cc3Cl)n2)n1
IC50 [2]: 381 nM

Compound: COc1cccc(-c2nc(NCCNc3ccc([N+](=O)[O-])cn3)ncc2-n2ccnc2)c1
IC50 [2]: 347 nM

Compound: Clc1ccc(-c2nc(NCCNc3ncccn3)ncc2-n2ccnc2)c(Cl)c1
IC50 [2]: > 10000 nM

Stronger by IC50 [2], values ahead:

EC50 [1]: 6100 nM
IC50 [2]: 29 nM
Compound: O=[N+]([O-])c1ccc(NCCNc2ncc(-n3ccnc3)c(-c3ccc(N4CCOCC4)cc3)n2)nc1

EC50 [1]: 10000 nM
IC50 [2]: 31 nM
Compound: O=[N+]([O-])c1ccc(NCCNc2ncc(-c3nnn[nH]3)c(-c3ccc(Cl)cc3Cl)n2)nc1

EC50 [1]: 900 nM
IC50 [2]: 31 nM
Compound: O=[N+]([O-])c1ccc(NCCNc2ncc(-n3ccnc3)c(-c3ccc(F)cc3F)n2)nc1

EC50 [1]: 1500 nM
IC50 [2]: 33 nM
Compound: Cc1noc(-c2cnc(NCCNc3ccc([N+](=O)[O-])cn3)nc2-c2ccc(C#N)cc2)n1

EC50 [1]: 840 nM
IC50 [2]: 17 nM
Compound: Nc1nc(NCCNc2ncc(CN3CCOCC3)c(-c3ccc(Cl)cc3Cl)n2)ccc1[N+](=O)[O-]

EC50 [1]: 190 nM
IC50 [2]: 6 nM
Compound: CC(=O)Nc1cnc(NCCNc2ccc([N+](=O)[O-])c(N)n2)nc1-c1ccc(Cl)cc1Cl

EC50 [1]: 1240 nM
IC50 [2]: 24 nM
Compound: O=[N+]([O-])c1ccc(NCCNc2ncc(-n3ccnc3)c(-c3ccccc3Cl)n2)nc1

EC50 [1]: > 10000 nM
IC50 [2]: 29 nM
Compound: N#Cc1ccc(-c2nc(NCCNc3ccc([N+](=O)[O-])cn3)ncc2C(N)=O)cc1

EC50 [1]: 4200 nM
IC50 [2]: 38 nM
Compound: Cc1ccc(-c2nc(NCCNc3ccc([N+](=O)[O-])cn3)ncc2-n2ccnc2)c(C)c1

EC50 [1]: 670 nM
IC50 [2]: 25 nM
Compound: CN(C)CC(=O)Nc1cnc(NCCNc2ccc([N+](=O)[O-])c(N)n2)nc1-c1ccc(Cl)cc1Cl

EC50 [1]: 3000 nM
IC50 [2]: 16 nM
Compound: Nc1nc(NCCNc2ncc(NC(=O)NCCN3CCOCC3)c(-c3ccc(Cl)cc3Cl)n2)ccc1[N+](=O)[O-]

IC50 [2]: 25 nM
Compound: CC(C)(C)OC(=O)c1cnc(NCCNc2ccc([N+](=O)[O-])cn2)nc1-c1ccc(C#N)cc1

EC50 [1]: 100 nM
IC50 [2]: 9 nM
Compound: CCc1ccc(-c2nc(NCCNc3ccc([N+](=O)[O-])cn3)ncc2-n2ccnc2)cc1

EC50 [1]: 1500 nM
IC50 [2]: 27 nM
Compound: COc1ccc(-c2nc(NCCNc3ccc([N+](=O)[O-])cn3)ncc2-n2ccnc2)c(OC)c1

EC50 [1]: > 10000 nM
IC50 [2]: 35 nM
Compound: N#Cc1ccc(-c2nc(NCCNc3ccc([N+](=O)[O-])cn3)ncc2C(=O)O)cc1

EC50 [1]: 17700 nM
IC50 [2]: 24 nM
Compound: Nc1nc(NCCNc2ncc(NC(=O)CCCN3CCOCC3)c(-c3ccc(Cl)cc3Cl)n2)ccc1[N+](=O)[O-]

EC50 [1]: 90 nM
IC50 [2]: 21 nM
Compound: CC(C)c1c[nH]c(-c2cnc(NCCNc3ccc([N+](=O)[O-])c(N)n3)nc2-c2ccc(Cl)cc2Cl)n1
